Laboratory results published in patent publication US20070203749A1 (priority 2005, published 2007).
Where two headings read alike, the source gives them in different places.

B1: TRAIL: tumor necrosis factor-related apoptosis inducing ligand, member of the TNF superfamily that induces apoptosis through death receptors (protein, UniProt P50591 1-281, looked up)
Tumor necrosis factor ligand …: MAMMEVQGGPSLGQTCVLIVIFTVLLQSLCVAVTYVYFTNELKQMQDKYSKSGIACFLKEDDSYWDPNDEESMNSPCWQVKWQLRQLVRKMILRTSEETISTVQEKQQNISPLVRERGPQRVAAHITGTRGRSNTLSSPNSKNEKALGRKINSWESSRSGHSFLSNLHLRNGELVIHEKGFYYIYSQTYFRFQEEIKENTKNDKQMVQYIYKYTSYPDPILLMKSARNSCWSKDAEYGLYSIYQGGIFELKENDRIFVSVTNEHLIDMDHEASFFGAFLVG

Columns and labels:
[1] = biological target: T1, cIAP-1 (Homo sapiens, UniProt Q13490); assay: Effect of proteasome inhibitor on IAP degradation, western blot, cIAP-1; type: cell-based; conditions: SK-OV-3 cells, 20 hrs, absence of bortezomib
T1 construct: endogenous in cells; host or cells: SK-OV-3
T1 sequence (Q13490 whole entry): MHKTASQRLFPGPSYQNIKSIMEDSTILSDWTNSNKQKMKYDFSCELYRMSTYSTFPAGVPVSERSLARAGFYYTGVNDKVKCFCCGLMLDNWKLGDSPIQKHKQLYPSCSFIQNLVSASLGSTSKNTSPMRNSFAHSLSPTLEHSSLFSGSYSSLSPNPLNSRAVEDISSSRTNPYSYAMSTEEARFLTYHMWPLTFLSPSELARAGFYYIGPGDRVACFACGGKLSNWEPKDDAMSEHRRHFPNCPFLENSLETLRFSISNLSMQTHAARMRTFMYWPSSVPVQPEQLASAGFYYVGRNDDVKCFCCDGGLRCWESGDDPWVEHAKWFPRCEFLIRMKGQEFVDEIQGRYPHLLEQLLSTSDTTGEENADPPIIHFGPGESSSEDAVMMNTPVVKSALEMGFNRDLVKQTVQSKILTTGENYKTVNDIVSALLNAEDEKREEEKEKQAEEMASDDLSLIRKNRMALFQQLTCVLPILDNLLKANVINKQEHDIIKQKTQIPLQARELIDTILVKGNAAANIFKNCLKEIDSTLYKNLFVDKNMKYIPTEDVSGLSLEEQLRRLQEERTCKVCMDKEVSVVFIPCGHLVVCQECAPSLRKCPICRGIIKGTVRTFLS
Description: (§1) Cells were harvested after trypsinization by centrifuging at 2000 rpm for 10 min. The cell pellet was washed with PBS and lysed with RIPA to disrupt the cell membrane. The lysate after centrifugation was loaded onto a 5-20% polyacrylamide gel to separate the proteins. A Western blot was carried out using standard techniques and probed for XIAP and cIAP-1 proteins as described above.
(§2) Similarly, IAP degradation assays can be carried out by well known techniques, as illustrated above. […] Ubiquitinated protein is then escorted to the 26S proteasome where it undergoes final degradation and the ubiquitin is released and recycled. Once cIAP-1 Antagonists bind to cIAP-1, it results in perturbation of cell survival complexes or dissociation of natural ligands, signaling IAPs to either self ubiquinate or become targets for ubiquitination followed by proteasomal degradation. […] To further elucidate the machinery involved with this phenomenon, we focused on the regulation of IAP stability and asked whether or not the proteasome was involved in the degradation of cIAP-1 and XIAP.

[2] = biological target: T2, XIAP (Homo sapiens, UniProt P98170); assay: Effect of proteasome inhibitor on IAP degradation, western blot, XIAP; type: cell-based; conditions: SK-OV-3 cells, 20 hrs, absence of bortezomib
T2 construct: endogenous in cells; host or cells: SK-OV-3
T2 sequence (P98170 whole entry): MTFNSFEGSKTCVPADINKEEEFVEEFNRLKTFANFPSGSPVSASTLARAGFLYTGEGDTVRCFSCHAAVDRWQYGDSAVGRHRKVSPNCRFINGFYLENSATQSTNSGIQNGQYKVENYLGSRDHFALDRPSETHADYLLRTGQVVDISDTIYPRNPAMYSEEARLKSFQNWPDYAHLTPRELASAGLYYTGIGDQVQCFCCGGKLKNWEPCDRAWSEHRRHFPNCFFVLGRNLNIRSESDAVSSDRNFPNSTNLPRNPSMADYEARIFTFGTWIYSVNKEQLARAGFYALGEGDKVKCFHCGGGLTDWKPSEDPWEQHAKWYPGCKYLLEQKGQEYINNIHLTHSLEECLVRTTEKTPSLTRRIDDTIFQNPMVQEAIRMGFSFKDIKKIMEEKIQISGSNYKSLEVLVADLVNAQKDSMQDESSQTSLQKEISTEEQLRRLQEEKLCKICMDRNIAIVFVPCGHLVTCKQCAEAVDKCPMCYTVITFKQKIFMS
Description: as §1, §2

[3] = biological target: XIAP-Bir3 (Homo sapiens, UniProt P98170); assay: Fluorescence polarization binding assay, purified XIAP BIR-3 domain
XIAP-Bir3, sequence (P98170 241-356 limits assumed): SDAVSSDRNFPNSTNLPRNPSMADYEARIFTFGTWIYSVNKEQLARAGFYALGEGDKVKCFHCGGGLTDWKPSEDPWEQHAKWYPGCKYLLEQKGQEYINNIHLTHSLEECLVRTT
Description: (§3) Binding constants were measured using fluorescence polarization as described in Zancta Nikolovska-Coleska et al., (2004) Analytical biochemistry, 332, 261-273. Briefly, various known concentrations of each test peptide were mixed with 5 nM fluorescently labeled peptide (AbuRPF-K(5-Fam)—NH2; FP peptide) and 40 nM of XIAP-Bir3, cIAP-1-Bir3 or cIAP-2-Bir3 in 100 μl of 0.1M Potassium Phosphate buffer, pH 7.5 containing 100 μg/ml bovine γ-globulin. These mixtures were incubated for 15 min at room temperature (approximately 22° C.). Following incubation, the polarization values (mP) were measured on a Victor^2V using a 485 nm excitation filter and a 535 nm emission filter. Kj(app) values were determined from the plot using nonlinear least-squares analysis using GraphPad Prism (Table 8).
(§4) In any event, binding to cIAP-1 and cIAP-2 or other IAPs can be determined using standard binding affinity assays, as illustrated above. […] We have utilized the specificity of this IAP binding motif in a fluorescence polarization assay to measure the binding affinities for cIAP-1 and cIAP-2 Antagonists. The fluorescence polarization assay consists of FP peptide, and the recombinant BIR3 domain of the XIAP protein. The FP peptide and mimics of the […] compete for binding to the BIR3 protein. […] If a peptide, peptidomimetic, or other small molecule being tested is a competitor, then it succeeds in displacing the FP peptide, resulting in a low mP value. Molecules that compete with the FP l peptide can be titrated and IC50 values determined (GraphPad Prism nonlinear regression curve-fitting program) by plotting mp values as the direct measure of fraction bound vs, the log of the compound concentration.

[4] = biological target: cIAP-1-Bir3 (Homo sapiens, UniProt Q13490); assay: Fluorescence polarization binding assay, purified cIAP-1 BIR-3 domain; conditions: for Kd: BIR-3 domain; for binding to cIAP-1 and cIAP-2 relative to XIAP (fold more tightly): ratio of binding constants vs XIAP
cIAP-1-Bir3, sequence (Q13490 253-363 limits assumed): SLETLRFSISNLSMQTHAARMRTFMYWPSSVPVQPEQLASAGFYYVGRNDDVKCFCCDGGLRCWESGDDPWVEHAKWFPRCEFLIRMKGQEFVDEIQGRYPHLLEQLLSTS
Description: as §3, §4

[5] = biological target: cIAP-2-Bir3 (Homo sapiens, UniProt Q13489); assay: Fluorescence polarization binding assay, purified cIAP-2 BIR-3 domain
cIAP-2-Bir3, sequence (Q13489 238-349 limits assumed): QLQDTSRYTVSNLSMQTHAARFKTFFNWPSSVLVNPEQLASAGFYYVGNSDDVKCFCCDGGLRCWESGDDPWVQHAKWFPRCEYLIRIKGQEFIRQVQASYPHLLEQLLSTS
Description: as §3, §4

[6] = tested on: SK-OV-3 cells; assay: MTT assay, growth inhibition of ovarian cancer cell line SK-OV-3; type: cell-based; conditions: Homo sapiens; for CC50: SK-OV-3 cells, 72 hrs, concentration giving 50% cell survival, Table 8; for EC50: SK-OV-3, SKOV-3 cells, Table 10
Description: The MTT assay was described in Hansen, M. B., Nielson, S. E., and Berg, K. (1989) J. Immunol Methods 119, 203-210 and incorporated herein by reference in its entirety. Briefly, SK-OV-3 cells were seeded in 96-well plates in McCoy's medium containing 10% fetal bovine serum albumin (10,000 per well) and incubated overnight at 37° C. […] This incubation time was optimal for measuring inhibitory effects of different analogs. 50 microliters of 5 mg/mL MTT reagent was added to each well, and the plates were incubated at 37° C. for 3 hours. At the end of the incubation period, 50 microliters of DMSO was added to each well to dissolve cells, and the optical density (OD) of the wells was measured with a microplate reader (Victor^2 1420, Wallac, Finland) at 535 nm. Cell survival (CS) was calculated using the following equation: CS=(OD treated well/mean OD control wells)×100%
The EC50 (Table 1). defined as the drug concentration that results in 50% CS, was derived by calculating the point where the dose-response curve crosses the 50% CS point using GraphPad Prism.

[7] = tested on: OVCAR-3 cells; assay: Synergistic toxicity with SN-38 (topoisomerase I inhibitor); type: cell-based; conditions: compared between Compounds N and H
[8] = tested on: SK-OV-3^R cells; assay: MTT assay on IAP Antagonist-resistant SK-OV-3^R cells; type: cell-based; conditions: SK-OV-3^R cells (IAP Antagonist-resistant)
Description: (§5) Another unexpected observation we made was with respect to TRAIL sensitivity. IAP Antagonist-resistant […] cells (SK-OV-3^R) were generated by exposing the parental SK-OV-3 cells ([…]) to an IAP antagonist compound at a concentration that kills 95% of cells. Three days later, viable cells were transferred to a fresh flask and grown to confluency. Two weeks later, the cells were tested for IAP Antagonist sensitivity in an MTT assay as describe above and as expected, found these cells to be resistant to IAP Antagonist cytotoxicity.

[9] = tested on: SK-OV-3^S cells; assay: MTT assay, TRAIL sensitivity of parental SK-OV-3^S cells; type: cell-based; conditions: SK-OV-3^S cells (parental)
Description: as §5

[10] = fluorescence polarization, Table 8, read-out: XIAP, Kβ(spp)
[11] = fluorescence polarization, Table 8, read-out: cIAP-1, Kd(3pp)
[12] = fluorescence polarization, Table 8, read-out: cIAP-2, Kd(apβ)
[13] = Table 10, read-out: Kd(App), XIAP
[14] = Table 10, read-out: Kd(App), c-IAP-1
[15] = Table 10, read-out: Kd(App), cIAP-2

| Molecule | Kd [3, 10] [nM] | Kd [4, 11] [nM] | Kd [5, 12] [nM] | CC50 [6] [µM] | further results |
| --- | --- | --- | --- | --- | --- |
| CN[C@@H](C)C(=O)N[C@H](C(=O)N1CCC[C@H]1Cc1c(-c2ccc(-c3c(C[C@@H]4CCCN4C(=O)[C@@H](NC(=O)[C@H](C)NC)C(C)(C)C)c4ccc(F)cc4n3CCO)cc2)n(CCO)c2cc(F)ccc12)C(C)(C)C [Q] |  |  |  |  | cIAP-1 protein level by western blot [1]: complete disappearance; XIAP protein level by western blot [2]: complete disappearance |
| CNC(C)C(=O)NC(C(=O)N1CCCC1Cc1c(-c2ccc(N3CCOCC3)cc2)n(CCOCCOCCOC)c2cc(F)ccc12)C(C)(C)C (centres unmarked) [G] | 400 | 130 | 180 | 0.28 |  |
| CCC(C)[C@H](NC(=O)[C@H](C)NC)C(=O)N1CCC[C@H]1Cc1c2n(c3ccc(F)cc13)CCn1c-2c(C[C@@H]2CCCN2C(=O)[C@@H](NC(=O)[C@H](C)NC)C(C)CC)c2cc(F)ccc21 (some centres unmarked) [A] | 10 | 0.5 | 14 | 0.0002 |  |
| CNC(C)C(=O)NC(C(=O)N1CC(OC(C)=O)CC1Cc1c[nH]c2ccccc12)C(C)C (centres unmarked) [Compound H] | 120 |  |  | 0.007 | Kd [3, 13]: 117 nM; Kd [4, 14]: 1 nM; binding to cIAP-1 and cIAP-2 relative to XIAP (fold more tightly) [4]: 117 fold; Kd [5, 15]: 46 nM; EC50 [6]: 7 nM; synergistic toxicity with SN-38, synergistic volume [7]: comparable |
| CNC(C)C(=O)NC(C(=O)N1CC(OC(C)=O)CC1Cc1c[nH]c2ccccc12)C(C)O (centres unmarked) [J] | 460 | 53 | 26 | 0.008 |  |
| CNC(C)C(=O)NC(C(=O)N1CC(OC(C)=O)CC1Cc1c[nH]c2ccccc12)C(C)(C)C (centres unmarked) [I] | 200 | 72 | 50 | 0.004 |  |
| CNC(C)C(=O)NC(C(=O)N1CCCC1Cc1c[nH]c2ccc(C)cc12)C(C)O (centres unmarked) [Compound K] | 310 | 8 | 6 | 0.002 |  |
| CC(C)C(NC(=O)CN)C(=O)N1CC(Oc2ccccc2)CC1Cc1coc2ccccc12 (centres unmarked) [D] | 160 | 17 | 33 | 0.043 |  |
| CNC(C)C(=O)NC(C(=O)N1CC(O)CC1Cc1c(-c2ccc(-c3[nH]c4ccccc4c3CC3CC(O)CN3C(=O)C(NC(=O)C(C)NC)C(C)(C)C)cc2)[nH]c2ccccc12)C(C)(C)C (centres unmarked) [N] |  |  |  |  | Kd [3, 13]: 1 nM; Kd [4, 14]: 1 nM; binding to cIAP-1 and cIAP-2 relative to XIAP (fold more tightly) [4]: comparable affinity; Kd [5, 15]: 6 nM; EC50 [6]: 7 nM; synergistic toxicity with SN-38, synergistic volume [7]: comparable |
| CNC(C)C(=O)NC(C(=O)N1CCCC1Cc1c(-c2ccc(F)cc2)n(CCOCCOCCOC)c2cc(F)ccc12)C(C)(C)C (centres unmarked) [F] | 820 | 26 | 120 | 0.079 |  |
| CNC(C)C(=O)NC(C(=O)N1CCCC1Cc1c(-c2ccc(C(=O)OC)cc2)n(CCOCCOCCOC)c2cc(F)ccc12)C(C)(C)C (centres unmarked) [E] | 90 | 16 | 8 | 0.046 |  |
| B1 |  |  |  |  | TRAIL sensitivity in MTT assay [8]: sensitive to TRAIL; TRAIL sensitivity in MTT assay [9]: resistant to TRAIL |
